Assay results reported in ChEMBL document CHEMBL6115051, “Design of Novel Mercapto-3-phenylpropanoyl Dipeptides as Dual Angiotensin-Converting Enzyme C-Domain-Selective/Neprilysin Inhibitors” (J Med Chem, 2025).
pIC50: −log10 of the molar value.

Assays:
Neprilysin = Neprilysin (Homo sapiens, UniProt P08473); assay: Inhibition of human NEP ectodomain using MCA-RPPGFSAFK-(Dnp)-OH peptide as substrate by continuous activity assay
[1] = molecular target: T1, Angiotensin-converting enzyme (Homo sapiens, UniProt P12821); assay: Inhibition of human glycosylated C-terminal catalytic ACE domain using Cbz-Phe-His-Leu substrate by fluorogenic end point activity assay
T1 sequence (P12821 whole entry, the tested form may be a part): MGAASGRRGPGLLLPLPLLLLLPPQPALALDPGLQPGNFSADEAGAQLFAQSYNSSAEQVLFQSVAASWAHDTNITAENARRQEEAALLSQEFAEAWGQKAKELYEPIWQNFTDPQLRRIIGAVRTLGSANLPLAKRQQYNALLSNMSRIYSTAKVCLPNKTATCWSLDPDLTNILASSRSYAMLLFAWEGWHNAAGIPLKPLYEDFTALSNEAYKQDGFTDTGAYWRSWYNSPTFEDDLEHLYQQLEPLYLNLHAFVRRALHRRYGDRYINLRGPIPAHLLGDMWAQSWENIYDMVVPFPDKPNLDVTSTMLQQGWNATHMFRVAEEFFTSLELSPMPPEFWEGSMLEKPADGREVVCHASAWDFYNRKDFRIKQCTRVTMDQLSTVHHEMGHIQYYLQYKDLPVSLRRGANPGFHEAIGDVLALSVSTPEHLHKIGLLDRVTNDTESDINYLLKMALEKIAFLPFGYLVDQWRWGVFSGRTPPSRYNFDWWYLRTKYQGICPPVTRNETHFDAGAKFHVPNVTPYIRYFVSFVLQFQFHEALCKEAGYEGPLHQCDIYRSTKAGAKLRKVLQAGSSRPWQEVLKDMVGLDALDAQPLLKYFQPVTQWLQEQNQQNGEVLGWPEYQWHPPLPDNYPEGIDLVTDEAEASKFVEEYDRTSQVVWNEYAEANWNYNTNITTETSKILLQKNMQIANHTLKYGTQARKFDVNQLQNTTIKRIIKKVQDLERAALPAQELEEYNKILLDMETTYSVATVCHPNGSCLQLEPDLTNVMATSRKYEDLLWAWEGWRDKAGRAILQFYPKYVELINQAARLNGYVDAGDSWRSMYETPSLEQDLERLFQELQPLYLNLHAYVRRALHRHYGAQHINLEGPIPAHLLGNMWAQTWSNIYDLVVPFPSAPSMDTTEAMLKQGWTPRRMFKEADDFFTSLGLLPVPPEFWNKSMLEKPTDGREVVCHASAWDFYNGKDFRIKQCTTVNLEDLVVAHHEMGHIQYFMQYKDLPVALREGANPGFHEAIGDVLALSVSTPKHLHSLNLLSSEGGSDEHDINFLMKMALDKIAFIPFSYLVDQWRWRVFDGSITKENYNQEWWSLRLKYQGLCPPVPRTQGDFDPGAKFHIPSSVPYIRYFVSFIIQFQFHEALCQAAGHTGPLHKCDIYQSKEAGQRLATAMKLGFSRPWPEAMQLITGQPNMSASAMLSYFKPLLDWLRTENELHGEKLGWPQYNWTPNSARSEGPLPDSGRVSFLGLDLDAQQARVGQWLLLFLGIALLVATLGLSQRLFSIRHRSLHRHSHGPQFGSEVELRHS

Homo sapiens = species on record: Homo sapiens; assay: Selectivity factor, ratio of IC50 for human glycosylated nACE to IC50 for human glycosylated cACE
[2] = molecular target: T1, Angiotensin-converting enzyme; assay: Inhibition of human glycosylated N-terminal catalytic ACE domain using Cbz-Phe-His-Leu substrate by fluorogenic end point activity assay

Sequence of Neprilysin (P08473 whole entry, the tested form may be a part): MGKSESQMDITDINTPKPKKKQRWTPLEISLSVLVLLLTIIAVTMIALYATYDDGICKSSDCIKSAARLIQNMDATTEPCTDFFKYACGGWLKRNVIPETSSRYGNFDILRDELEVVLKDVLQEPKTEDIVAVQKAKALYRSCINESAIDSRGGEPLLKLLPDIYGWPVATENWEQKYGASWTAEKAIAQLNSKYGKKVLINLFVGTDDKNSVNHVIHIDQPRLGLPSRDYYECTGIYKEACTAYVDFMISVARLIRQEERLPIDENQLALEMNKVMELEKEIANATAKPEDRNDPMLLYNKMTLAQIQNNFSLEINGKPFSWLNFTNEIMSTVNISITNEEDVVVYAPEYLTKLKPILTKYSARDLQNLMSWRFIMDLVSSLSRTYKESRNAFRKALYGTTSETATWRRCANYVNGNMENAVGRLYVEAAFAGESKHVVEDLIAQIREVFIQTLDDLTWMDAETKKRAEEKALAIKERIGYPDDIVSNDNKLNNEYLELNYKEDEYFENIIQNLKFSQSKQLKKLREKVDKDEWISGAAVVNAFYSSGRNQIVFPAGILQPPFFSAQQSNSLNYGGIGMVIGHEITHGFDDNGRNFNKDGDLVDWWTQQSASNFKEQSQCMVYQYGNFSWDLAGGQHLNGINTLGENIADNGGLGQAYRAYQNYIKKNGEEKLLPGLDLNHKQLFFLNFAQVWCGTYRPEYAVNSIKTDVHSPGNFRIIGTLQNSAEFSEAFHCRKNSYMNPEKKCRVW

pIC50 (Neprilysin) | pIC50 [1] | Ratio IC50 (Homo sapiens) | pIC50 [2] | SMILES
< 4.00 | 5.39 | 1.5 | 5.22 | Cc1ccc([C@H]2CC[C@@H](C(=O)O)N2C(=O)CN[C@@H](CCc2ccccc2)C(=O)O)cc1
– | 8.05 | – | – | O=C(NCC(=O)N1[C@@H](c2cccc(O)c2)CC[C@H]1C(=O)O)[C@@H](S)Cc1ccc(O)cc1
– | 8.15 | – | – | NCCCC[C@H](NC(=O)[C@@H](S)Cc1ccccc1)C(=O)N[C@@H](Cc1c[nH]c2ccccc12)C(=O)O
< 3.60 | 7.10 | 39 | 5.51 | NCCCC[C@H](N[C@@H](CCc1ccccc1)C(=O)O)C(=O)N[C@@H](Cc1c[nH]c2ccccc12)C(=O)O
